# Measurements as given in US11807685B2, “Anti-CD47 antibody and uses thereof” (THE UAB RESEARCH FOUNDATION, priority 2021, dated 2023).
# B1: anti-CD47 mAb: anti-CD47 mAb (IgG2b/kappa) targeting the extracellular domain (Gln19-Glu141) of CD47; heavy chain SEQ ID NO:1, light chain SEQ ID NO:2 (antibody)
# heavy: MLLGLKWVFFVVFYQGVHCEVQLVESGGGLVQPKGSLKLSCAASGFTFNTYAMNWVRQAPGKGLEWIARIRSKSNNYATYYADSMKDRFTISRDDSQSMLYLQMNNLKTEDTAMYYCVRPAQGAMDYWGHGTSVTVSSSKTTPPSVYPLAPGCGDTTGSSVTLGCLVKGYFPESVTVTWNSGSLSSSVHTFPALLQSGLYTMSSSVTVPSSTWPSQTVTCSVAHPASSTTVDKKLEPSGPISTINPCPPCKECHKCPAPNLEGGPSVFIFPPNIKDVLMISLTPKVTCVVVDVSEDDPDVQISWFVNNVEVHTAQTQTHREDYNSTIRVVSTLPIQHQDWMSGKEFKCKVNNKDLPSPIERTISKIKGLVRAPQVYILPPPAEQLSRKDVSLTCLVVGFNPGDISVEWTSNGHTEENYKDTAPVLDSDGSYFIYSKLNMKTSKWEKTDSFSCNVRHEGLKNYYLKKSFSRTPGK
# light: MVFTPQILGLMLFWISASRGDIVLTQSPATLSVTPGDSVSLSCRASQRISNNLHWYQQKSHESPRLLIKYSSQSISGIPSRFSGSGSGTDFTLSINSVETEDFGMYFCQQSNAWPYTFGGGTKLEIRRADAAPTVSIFPPSSEQLTSGGASVVCFLNNFYPKDINVKWKIDGSERQNGVLNSWTDQDSKDSTYSMSSTLTLTKDEYERHNSYTCEATHKTSTSPIVKSFNRNEC
# Key:
# MDA-MB-468 cells [1] = assay: In vitro cytotoxicity assay (CellTiter-Glo); assay type: cell-based, human; details: for cell viability: 3-day assay
# Method: (§1) The 96-well plates were seeded with MDA-MB-231 and MDA-MB-468 cells at VCD of 5×10^5 cells/mL in 100 μL of DMEM/F12 complete medium with triplication. Then 100 μL of cell growth medium containing ADC or free drug was added to reach final concentrations of 0-200 nM and incubated in CO2 incubator for 72 hrs. The cytotoxicity of ADC or free drug was measured with CellTiter-Glo Luminescent Cell Viability Assay (Promega, Madison, […]) and reported as the relative viability using untreated cells as control. The IC50 value was calculated using ED50V10 Excel add-in.
# MDA-MB-231 cells [2] = assay: In vitro cytotoxicity assay (CellTiter-Glo); assay type: cell-based, human; details: for cell viability: 3-day assay
# Method: as §1
# CD47 = assay: Western blotting of CD47 in GC treated MDA-MB-231 cells; assay type: cell-based, human; details: 10 nM for 3 weeks
# Method: The non-reducing SDS-PAGE was run by loading 2 μg of mAb or ADC to Bolt™ 4 to 12%, Bis-Tris Mini Protein Gel (1.0 mm) to validate the purity and integrality of the produced anti-CD47 mAb and ADC. In Western blotting analysis, 30 μg of total cell lysis protein was loaded to gel and electro-transferred to PVDF membrane using PowerEase™ Touch 350 W Power Supply (Fisher). After blocking, the blotted membrane was probed using primary rabbit anti-mouse antibody and HRP-conjugated secondary anti-rabbit antibody (Abcam, Cambridge, UK). The blotted membrane was treated with Luminata Forte Western HRP substrate (Millipore, Boston, MA). The SDS-PAGE and Western blots were imaged with MyECL imager and quantified using ImageJ software.
# The surface expression of CD47 in TNBC cell lines was analyzed using mass spectrometry (MS, Thermo Orbitrap Velos Pro) at the University of Alabama at Birmingham (UAB) MS and proteomics core facility. […] Furthermore, to confirm the CD47 upregulation by chemotherapy, we treated MDA-MB-231 cells with 10 nM GC for 3 weeks.
# [3] = system: MDA-MB-231-FLuc xenograft; assay: IVIS imaging of in vivo TNBC targeting; set-up: species or system mouse
# Excerpt: (§2) Human TNBC xenograft mouse model was generated by subcutaneously (s.c.) injecting 3×10^6 of MDA-MB-231-FLuc cells into the 6-week-old NSG (NOD scid gamma) female mice (Jackson Labs, Bar Harbor, ME). This immunocompromised model was used to evaluate the tumor targeting of our mAb and anti-TNBC efficacy of the constructed ADC. The immunocompetent mouse model was generated by injecting 1×10^6 of mouse TNBC 4T1-FLuc cells into the BALB/cJ female mice, which was used to analyze the tumoral immunity. Mice developed tumors within 2 weeks post cells injection.
# When TNBC tumor volume reached approximately 100 mm^3, 50 μg of Cyanine 5.5 (Cy5.5, Lumiprobe, Hunt Valley, MD) labelled anti-CD47 mAb or 1.5 nmole Cy5.5 (control, similar amount as labelled Cy5.5 in mAb) was intravenously (i.v.) administrated via tail vein for TNBC-targeting analysis. Mice were imaged at 24 hrs post mAb injection under IVIS Lumina Series III (PerkinElmer, Waltham, MA) with wavelength of 660 nm/710 nm (excitation/emission) and exposure time of 10 seconds. Inhalation anesthesia was induced by delivering 3.5-4.5% isoflurane in oxygen to mice via respiratory system (nose cone), then maintained with a concentration of 1-2% during imaging procedure.
# [4] = system: MDA-MB-231-FLuc xenograft; assay: In vivo anti-TNBC efficacy study; set-up: species or system mouse; unit not given here; details: 8 mg/kg i.v. Q4Dx4, terminal tumor; no significant difference to PBS group
# Excerpt: as §2
# The TNBC MDA-MB-231-FLuc xenograft mice were treated with 16 mg/kg-BW of GC by intraperitoneal (IP) injection when tumor volume reached ˜50 mm^3. […] Tumor volume was measured using an electronic caliper and calculated as “width×width×length/2” in mm. Body weight was measured every other day. The in vivo treatment study was ended after 21-day treatment which was determined based on our previous ADC treatment animal study (Si, Y.; et al. Eng Life Sci 2021, 21:37-44; Ou, J.; et al. PLoS One 2018, 13:e0206246; Xu, N.; et al. Biochemical Engineering Journal 2019, 145:177-185). At the end of the experiment, mice were euthanized and the TNBC tumors were collected to measure the wet weight.
# [5] = Toxicity in the efficacy study (body weight, H&E staining of organs); assay type: in vivo, mouse; details: 8 and 24 mg/kg ADC, 8 mg/kg mAb, PBS; Q4Dx4
# Method: […] […] Tumor volume was measured using an electronic caliper and calculated as “width×width×length/2” in mm. Body weight was measured every other day. The in vivo treatment study was ended after 21-day treatment which was determined based on our previous ADC treatment animal study (Si, Y.; et al. Eng Life Sci 2021, 21:37-44; Ou, J.; et al. PLoS One 2018, 13:e0206246; Xu, N.; et al. Biochemical Engineering Journal 2019, 145:177-185). At the end of the experiment, mice were euthanized and the TNBC tumors were collected to measure the wet weight.
# The IHC and H&E staining were performed. In IHC staining, the paraffin-embedded slides were immersed in xylene followed by 3% H2O2 in PBS, and blocked with 3% normal goat serum. The rabbit anti-mouse CD11b mAb (Cell Signaling, Danvers, MA) and HRP-conjugated goat anti-rabbit IgG mAb were used to stain the macrophage in tumor tissue. After color development with DAB chromogen, the slides were counterstained with hematoxylin and dehydrated in absolute ethanol. In H&E staining, the embedded normal organ slides were dewaxed, hydrated with 100%-0% ETOH, immersed in hematoxylin solution, and rinsed with tap water and eosin. After equilibration in ethanol, the stained slides were dipped in Xylene and mounted with cytoseal Xyl.
# [6] = Whole blood analysis (HemaVet 950FS) in 4T1 xenograft BALB/cJ model; assay type: in vivo, mouse; details: 8 mg/kg, after two weeks, BALB/cJ 4T1 xenograft
# Excerpt: The blood samples were extracted by cardiac puncture for whole blood analysis using HemaVet 950FS (Drew Scientific, Miami Lakes, FL). The leukocytes (white blood cell, neutrophil, lymphocyte, monocyte, eosnophils), erythrocytes (red blood cell, hemoglobin, mean corpuscular hemoglobin), and thrombocytes (platelet) were titrated to analyze the general peripheral immune response.
# as §2
# The general immune response to anti-CD47 mAb was also tested using whole blood analysis and flow cytometry analysis of lymph nodes in the 4T1 xenograft BALB/cJ model (n=4). The mice carrying 50 mm^3 xenograft were treated with 8 mg/kg anti-CD47 mAb. After two weeks, blood was collected through cardiac puncture. […] The lymph nodes were also harvested and dissociated for flow cytometry analysis of fresh cells. […]
# [7] = system: normal breast 184B5 cells; assay: Flow cytometry surface binding; details: normal 184B5 cells, mAb-AF647, flow cytometry
# Method: (§3) The flow cytometry was conducted to analyze anti-CD47 mAb's binding rate to TNBC cells and quantify the immune cells using a BD LSRII flow cytometer (BD Biosciences, San Jose, CA). In surface binding analysis, the produced CD47 mAb was labelled with an Alexa Fluor™ 647 labelling kit (Life Technologies, part of Fisher) and used to stain MDA-MB-468, MDA-MB-231, 4T1, and 184B5 cells with 5 μg of mAb-AF647 per million of cells at room temperature for 30 mins (Ou, J.; et al. PLOS ONE 2018; Si, Y.; et al. Pharmaceutics 2020, 12:1079-1090; Ou, J.; et al. J Biol Eng 2019, 13:34). The harvested lymph nodes were dissociated with Tissue Dissociation/Single Cell Isolation Kit (101 Bio LLC, Sunnyvale, CA) following manufacturing procedure, and stained with Cy5 anti-CD69 antibody, APC anti-CD11c antibody, or PE/Cy7 anti-CD4 antibody (BioLegend, San Diego, CA) for flow cytometry analysis.
# 4T1 cells = assay: Flow cytometry surface binding; details: mouse TNBC 4T1, mAb-AF647, flow cytometry
# Method: as §3
# MDA-MB-468 cells [8] = assay: Live-cell confocal imaging of internalization; assay type: cell-based, human; details: AF647 labelled mAb
# Excerpt: Confocal microscopy imaging was collected to validate the targeting and internalization of anti-CD47 mAb in TNBC cells following our reported protocol (Si, Y.; et al. Cancer Gene Therapy. Cancer Gene Therapy 2020; Si, Y.; et al. Eng Life Sci 2021, 21:37-44; Ou, J.; et al. PLOS ONE 2018; Si, Y.; et al. Pharmaceutics 2020, 12:1079-1090; Si, Y.; et al. Biotechnol J 2019). Briefly, the MDA-MB-468 cells were stained with BacMam GFP Transduction Control, which expresses eGFP protein in cytoplasm, NucBlue Live ReadyProbes to stain nucleus, and AF647 labelled anti-CD47 mAb to target TNBC cells via surface receptor. The live-cell images were collected using a Nikon A1R-HD25 confocal microscope with a high-speed resonance scanner (Nikon USA, Melville, NY).
# lymph node immune cells = assay: Flow cytometry analysis of immune cells in lymph nodes, 4T1 xenograft BALB/cJ model; assay type: in vivo, mouse; details: 8 mg/kg, BALB/cJ 4T1 xenograft
# Method: as §3, §2
# The general immune response to anti-CD47 mAb was also tested using whole blood analysis and flow cytometry analysis of lymph nodes in the 4T1 xenograft BALB/cJ model (n=4). The mice carrying 50 mm^3 xenograft were treated with 8 mg/kg anti-CD47 mAb. After two weeks, blood was collected through cardiac puncture. […] The lymph nodes were also harvested and dissociated for flow cytometry analysis of fresh cells. […] In the future, a full investigation of immune function in tumor microenvironment is needed in order to delineate the possible anti-TNBC immunity of this mAb.
# MDA-MB-468 cells [9] = assay: Flow cytometry surface binding; set-up: species or system human; details: MDA-MB-468, mAb-AF647, flow cytometry
# Method: as §3
# MDA-MB-231 cells [10] = assay: Flow cytometry surface binding; set-up: species or system human; details: MDA-MB-231, mAb-AF647, flow cytometry
# Method: as §3
molecule,measurement,setting,value
"COc1cc2cc(c1Cl)N(C)C(=O)C[C@H](OC(=O)[C@H](C)N(C)C(=O)CCS)[C@]1(C)O[C@H]1[C@H](C)[C@@H]1C[C@@](O)(NC(=O)O1)[C@H](OC)/C=C/C=C(\C)C2 [DM1, mertansine]",cell viability,"MDA-MB-468 cells [1]; MDA-MB-468, 25 nM",56%
same,cell viability,"MDA-MB-468 cells [1]; MDA-MB-468, 50 nM",37%
same,cell viability,"MDA-MB-468 cells [1]; MDA-MB-468, 100 nM",32%
same,cell viability,"MDA-MB-468 cells [1]; MDA-MB-468, 200 nM",34%
same,IC50,"MDA-MB-468 cells [1]; MDA-MB-468, 72 hrs",0.021 µM
same,cell viability,"MDA-MB-231 cells [2]; MDA-MB-231, 25 nM",94%
same,cell viability,"MDA-MB-231 cells [2]; MDA-MB-231, 50 nM",72%
same,cell viability,"MDA-MB-231 cells [2]; MDA-MB-231, 100 nM",53%
same,cell viability,"MDA-MB-231 cells [2]; MDA-MB-231, 200 nM",54%
same,IC50,"MDA-MB-231 cells [2]; MDA-MB-231, 72 hrs",0.047 µM
"Nc1ccn([C@@H]2O[C@H](CO)[C@@H](O)C2(F)F)c(=O)n1 [GC, gemcitabine]",CD47 expression,CD47,increased
Cyanine 5.5 [Cy5.5],"distribution in major organs (brain, heart, lung, spleen, kidney, liver)","[3]; 24 hrs post i.v. injection, IVIS","distributed in multiple locations such as brain, liver and kidney"
B1,tumor weight,[4],307±76
same,overall body weight change among the four groups,[5],no obvious difference
same,"leukocytes, erythrocytes and thrombocytes counts vs PBS control group",[6],no obvious difference
same,surface binding,[7],4.39%
same,surface binding,4T1 cells,90.5%
same,time to targeting and accumulation in TNBC tumor post i.v. injection,"[3]; mouse, in vivo, iv",≤ 24 h
same,time to internalization and localization in cytoplasm after mixing,MDA-MB-468 cells [8],≤ 60 min
same,CD11c+ DC cells in lymph nodes,lymph node immune cells; PBS control 5.44%,8.49%
same,CD69+ NK cells in lymph nodes,lymph node immune cells; PBS control 6.55%,10.3%
same,CD4+ T cells in lymph nodes,lymph node immune cells; PBS control 63.8%,68.3%
same,surface binding,MDA-MB-468 cells [9],98.9%
same,surface binding,MDA-MB-231 cells [10],97.3%
